Source: ChEMBL document CHEMBL6153102, “Rational Design, Synthesis, and Biological Evaluation of Novel c-Met Degraders for Lung Cancer Therapy” (J Med Chem, 2025)
Activity calls are given as the source filed them. The rule behind the calls is not given here.

What was measured:
[1] = biological target: T1, Protein cereblon/Hepatocyte growth factor receptor (Homo sapiens, UniProt P08581+Q96SW2); assay: PROTAC activity at c-Met/CRBN in human HCT-116 cells assessed as induction of c-Met degradation at 100 nM incubated for 24 hrs by Western blotting analysis relative to control; format: cell-based
[2] = biological target: T1, Protein cereblon/Hepatocyte growth factor receptor; assay: PROTAC activity at c-Met/CRBN in human EBC-1 cells assessed as induction of c-Met degradation at 100 nM incubated for 24 hrs by Western blotting analysis relative to control; format: cell-based
[3] = biological target: T1, Protein cereblon/Hepatocyte growth factor receptor; assay: PROTAC activity at c-Met/CRBN in human A549 cells assessed as induction of c-Met degradation at 100 nM incubated for 24 hrs by Western blotting analysis relative to control; format: cell-based
A549 = assay: Antiproliferative activity against human A549 cells assessed as cell viability incubated for 72 hrs by MTT assay; format: functional, cell-based; settings: A549, 72 h
HCT-116 = assay: Antiproliferative activity against human HCT-116 cells assessed as cell viability incubated for 72 hrs by MTT assay; format: functional, cell-based; settings: HCT-116, 72 h
EBC-1 [4] = assay: Antiproliferative activity against human EBC-1 cells assessed as cell viability incubated for 72 hrs by MTT assay; format: functional, cell-based; settings: EBC-1, 72 h
EBC-1 [5] = assay: Antitumor activity against human EBC-1 cells xenografted BALB/c nude mouse assessed as reduction in tumor volume at 20 mg/kg, ip administered for 7 days; format: functional; set-up: scale not given: the % may be the effect or the level left; settings: time 7 day
Hs746T = assay: Antiproliferative activity against human Hs746T cells assessed as cell viability incubated for 72 hrs by MTT assay; format: functional, cell-based
MKN-45 = assay: Antiproliferative activity against human MKN-45 cells assessed as cell viability incubated for 72 hrs by MTT assay; format: functional, cell-based; settings: MKN-45, 72 h

T1 sequence (P08581 25-1390 limits assumed): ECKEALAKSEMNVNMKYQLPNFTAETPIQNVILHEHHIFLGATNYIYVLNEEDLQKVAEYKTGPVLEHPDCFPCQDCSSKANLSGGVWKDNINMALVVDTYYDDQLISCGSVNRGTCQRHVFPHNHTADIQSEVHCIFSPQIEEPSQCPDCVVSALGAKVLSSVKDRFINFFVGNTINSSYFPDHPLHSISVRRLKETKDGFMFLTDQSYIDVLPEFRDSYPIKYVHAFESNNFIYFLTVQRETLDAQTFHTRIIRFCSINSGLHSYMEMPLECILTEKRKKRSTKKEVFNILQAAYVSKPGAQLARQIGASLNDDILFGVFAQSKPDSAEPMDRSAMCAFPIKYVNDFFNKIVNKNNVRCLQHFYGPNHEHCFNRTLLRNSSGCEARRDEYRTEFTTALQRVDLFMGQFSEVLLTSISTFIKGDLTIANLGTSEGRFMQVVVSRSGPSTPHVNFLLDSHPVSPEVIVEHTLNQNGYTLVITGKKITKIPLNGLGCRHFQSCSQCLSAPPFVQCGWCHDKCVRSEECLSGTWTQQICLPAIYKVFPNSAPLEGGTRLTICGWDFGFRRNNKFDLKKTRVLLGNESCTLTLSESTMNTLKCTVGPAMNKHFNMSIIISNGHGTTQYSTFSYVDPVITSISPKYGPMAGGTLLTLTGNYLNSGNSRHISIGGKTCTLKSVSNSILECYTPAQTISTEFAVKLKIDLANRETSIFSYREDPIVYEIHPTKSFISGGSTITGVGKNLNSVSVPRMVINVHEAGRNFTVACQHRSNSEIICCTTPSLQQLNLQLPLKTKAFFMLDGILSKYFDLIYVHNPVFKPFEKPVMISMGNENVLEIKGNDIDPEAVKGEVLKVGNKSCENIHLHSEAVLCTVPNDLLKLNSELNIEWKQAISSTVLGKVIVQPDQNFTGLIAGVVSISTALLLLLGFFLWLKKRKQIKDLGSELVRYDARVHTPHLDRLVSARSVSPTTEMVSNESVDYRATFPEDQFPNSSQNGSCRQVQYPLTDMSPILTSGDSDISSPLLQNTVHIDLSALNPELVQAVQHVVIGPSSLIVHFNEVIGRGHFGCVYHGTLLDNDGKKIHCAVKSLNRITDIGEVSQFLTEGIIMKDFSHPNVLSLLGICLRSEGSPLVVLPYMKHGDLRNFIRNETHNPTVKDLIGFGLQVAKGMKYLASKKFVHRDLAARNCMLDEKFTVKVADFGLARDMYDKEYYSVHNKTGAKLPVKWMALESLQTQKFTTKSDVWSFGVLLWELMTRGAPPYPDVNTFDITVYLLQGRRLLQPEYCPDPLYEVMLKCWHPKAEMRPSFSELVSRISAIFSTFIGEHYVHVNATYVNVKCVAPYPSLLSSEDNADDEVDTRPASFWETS
T1 sequence (Q96SW2 whole entry partner): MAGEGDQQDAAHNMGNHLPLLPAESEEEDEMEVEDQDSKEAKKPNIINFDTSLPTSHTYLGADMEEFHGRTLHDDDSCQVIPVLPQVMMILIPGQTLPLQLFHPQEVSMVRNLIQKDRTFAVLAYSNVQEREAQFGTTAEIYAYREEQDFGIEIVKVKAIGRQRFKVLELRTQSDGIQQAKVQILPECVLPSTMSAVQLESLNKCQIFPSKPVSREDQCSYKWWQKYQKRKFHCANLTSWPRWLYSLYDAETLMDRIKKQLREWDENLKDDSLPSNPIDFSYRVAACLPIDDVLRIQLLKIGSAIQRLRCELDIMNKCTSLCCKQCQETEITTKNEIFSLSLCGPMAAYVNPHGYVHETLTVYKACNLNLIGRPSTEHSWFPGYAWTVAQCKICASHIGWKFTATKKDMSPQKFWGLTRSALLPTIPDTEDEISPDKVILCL

COc1ccc(C(=O)NCCCCCCN2CCC(COc3cnc(-c4cccc(Cn5nc(-c6cccc(C#N)c6)ccc5=O)c4)nc3)CC2)cc1N1CCC(=O)NC1=O was tested, and the Activity [1] was “inactive”, the Activity [2] was “inactive” and the Activity [3] was “inactive”.
For COc1ccc(C(=O)N2CCC3(CCN(C(=O)CCCCN4CCC(COc5cnc(-c6cccc(Cn7nc(-c8cccc(C#N)c8)ccc7=O)c6)nc5)CC4)CC3)CC2)cc1N1CCC(=O)NC1=O, the Activity [1] was “inactive”, the Activity [2] was 83.7% and the Activity [3] was “inactive”.
COc1ccc(C(=O)NCCCCN2CCC(COc3cnc(-c4cccc(Cn5nc(-c6cccc(C#N)c6)ccc5=O)c4)nc3)CC2)cc1N1CCC(=O)NC1=O was tested, and the Activity [1] was “inactive”, the Activity [2] was “inactive” and the Activity [3] was “inactive”.
COc1ccc(C(=O)N2CC3CC(CN(C(=O)CN4CCC(COc5cnc(-c6cccc(Cn7nc(-c8cccc(C#N)c8)ccc7=O)c6)nc5)CC4)C3)C2)cc1N1CCC(=O)NC1=O was tested, and the Activity [1] was “inactive”, the Activity [2] was “inactive” and the Activity [3] was “inactive”.
For COc1ccc(C(=O)N2CCC3(CCN(C(=O)CCN4CCC(COc5cnc(-c6cccc(Cn7nc(-c8cccc(C#N)c8)ccc7=O)c6)nc5)CC4)CC3)CC2)cc1N1CCC(=O)NC1=O, the Activity [1] was “inactive”, the Activity [2] was 85.6% and the Activity [3] was “inactive”.
N#Cc1cccc(-c2ccc(=O)n(Cc3cccc(-c4ncc(OCC5CCN(C(=O)C[C@]67CC8CC(C[C@H](C8)C6)C7)CC5)cn4)c3)n2)c1 was tested, and the Activity [1] was “inactive”, the Activity [2] was 1.5% and the Activity [3] was “inactive”.
In the case of N#Cc1cccc(-c2ccc(=O)n(Cc3cccc(-c4ncc(OCC5CCN(C(=O)CCCCNC(=O)C6CC7C=CC6C7)CC5)cn4)c3)n2)c1 (stereo not given), the Activity [1] is reported as “inactive”, the Activity [2] is reported as 12.4% and the Activity [3] is reported as “inactive”.
For N#Cc1cccc(-c2ccc(=O)n(Cc3cccc(-c4ncc(OCC5CCN(C(=O)C6c7ccccc7-c7ccccc76)CC5)cn4)c3)n2)c1, the Activity [1] was “inactive”, the Activity [2] was 13.4% and the Activity [3] was “inactive”.
With N#Cc1cccc(-c2ccc(=O)n(Cc3cccc(-c4ncc(OCC5CCN(C(=O)CCCCNC(=O)CC67C[C@H]8C[C@@H](C6)C[C@@H](C7)C8)CC5)cn4)c3)n2)c1 the Activity [1] was “inactive”, the Activity [2] was 2.8% and the Activity [3] was “inactive”.
N#Cc1cccc(-c2ccc(=O)n(Cc3cccc(-c4ncc(OCC5CCN(C(=O)CCCCNC(=O)C6c7ccccc7-c7ccccc76)CC5)cn4)c3)n2)c1 was tested, and the Activity [1] was “inactive”, the Activity [2] was 4.1% and the Activity [3] was “inactive”.
COc1ccc(C(=O)N2CCC3(CCN(C(=O)CN4CCC(COc5cnc(-c6cccc(Cn7nc(-c8cccc(C#N)c8)ccc7=O)c6)nc5)CC4)C3)CC2)cc1N1CCC(=O)NC1=O was tested, and the Activity [1] was “inactive”, the Activity [2] was 74.6% and the Activity [3] was “inactive”.
Work on CN1CCC(COc2cnc(-c3cccc(Cn4nc(-c5cccc(C#N)c5)ccc4=O)c3)nc2)CC1 [TEPOTINIB] yielded an IC50 (A549) of 13.5 µM, an IC50 (HCT-116) of 4.94 µM and an IC50 (EBC-1 [4]) of 0.012 µM. The Activity (EBC-1 [5]) was 74.5%, the IC50 (Hs746T) was 0.038 µM and the IC50 (MKN-45) was 0.063 µM.
In the case of N#Cc1cccc(-c2ccc(=O)n(Cc3cccc(-c4ncc(OCC5CCN(C(=O)CCCCNC(=O)C(c6ccccc6)c6ccccc6)CC5)cn4)c3)n2)c1, the Activity [1] is reported as “inactive”, the Activity [2] is reported as 4.4% and the Activity [3] is reported as “inactive”.
With CC(C)Cc1ccc([C@H](C)C(=O)NCCCCC(=O)N2CCC(COc3cnc(-c4cccc(Cn5nc(-c6cccc(C#N)c6)ccc5=O)c4)nc3)CC2)cc1 the Activity [1] was “inactive”, the Activity [2] was “inactive” and the Activity [3] was “inactive”.
In the case of CC(C)Cc1ccc([C@H](C)C(=O)N2CCC(COc3cnc(-c4cccc(Cn5nc(-c6cccc(C#N)c6)ccc5=O)c4)nc3)CC2)cc1, the Activity [1] is reported as “inactive”, the Activity [2] is reported as 23.3% and the Activity [3] is reported as “inactive”.
With N#Cc1cccc(-c2ccc(=O)n(Cc3cccc(-c4ncc(OCC5CCN(C(=O)C(c6ccccc6)c6ccccc6)CC5)cn4)c3)n2)c1 the Activity [1] was “inactive”, the Activity [2] was 2.7% and the Activity [3] was “inactive”.
COc1ccc(C(=O)N2CCC3(CCN(C(=O)CCCCCN4CCC(COc5cnc(-c6cccc(Cn7nc(-c8cccc(C#N)c8)ccc7=O)c6)nc5)CC4)CC3)CC2)cc1N1CCC(=O)NC1=O was tested, and the Activity [1] was “inactive”, the Activity [2] was 79.1% and the Activity [3] was “inactive”.
N#Cc1cccc(-c2ccc(=O)n(Cc3cccc(-c4ncc(OCC5CCN(C(=O)C(C6CCCCC6)C6CCCCC6)CC5)cn4)c3)n2)c1 was tested, and the Activity [1] was “inactive”, the Activity [2] was “inactive” and the Activity [3] was “inactive”.
With N#Cc1cccc(-c2ccc(=O)n(Cc3cccc(-c4ncc(OCC5CCN(C(=O)CCCCNC(=O)C(C6CCCCC6)C6CCCCC6)CC5)cn4)c3)n2)c1 the Activity [1] was “inactive”, the Activity [2] was 0.9% and the Activity [3] was “inactive”.
For N#Cc1cccc(-c2ccc(=O)n(Cc3cccc(-c4ncc(OCC5CCN(C(=O)C6CC7C=CC6C7)CC5)cn4)c3)n2)c1 (stereo not given), the Activity [1] was “inactive”, the Activity [2] was 22.4% and the Activity [3] was “inactive”.
COc1ccc(C(=O)N2CC3CN(C(=O)CN4CCC(COc5cnc(-c6cccc(Cn7nc(-c8cccc(C#N)c8)ccc7=O)c6)nc5)CC4)CC3C2)cc1N1CCC(=O)NC1=O (stereo not given) was tested, and the Activity [1] was “inactive”, the Activity [2] was “inactive” and the Activity [3] was “inactive”.
For COc1ccc(C(=O)N2CCC3(CCN(C(=O)CN4CCC(COc5cnc(-c6cccc(Cn7nc(-c8cccc(C#N)c8)ccc7=O)c6)nc5)CC4)C3)C2)cc1N1CCC(=O)NC1=O (stereo not given), the Activity [1] was “inactive”, the Activity [2] was 54.1% and the Activity [3] was “inactive”.
In the case of COc1ccc(C(=O)N2CCN(C(=O)CN3CCC(COc4cnc(-c5cccc(Cn6nc(-c7cccc(C#N)c7)ccc6=O)c5)nc4)CC3)CC2)cc1N1CCC(=O)NC1=O, the Activity [1] is reported as “inactive”, the Activity [2] is reported as “inactive” and the Activity [3] is reported as “inactive”.
COc1ccc(C(=O)N2CCC3(CC2)CN(C(=O)CN2CCC(COc4cnc(-c5cccc(Cn6nc(-c7cccc(C#N)c7)ccc6=O)c5)nc4)CC2)C3)cc1N1CCC(=O)NC1=O was tested, and the Activity [1] was “inactive”, the Activity [2] was 37.7% and the Activity [3] was “inactive”.
